Key:
DOR = conditions: cited from earlier work
[1] = test system: endogenous adenosine receptors (A1 purinergic receptors); assay: Gαi bONE-GO kinetic BRET in primary mouse cortical astroglial cells; format: cell-based; conditions: lentiviral Gαi bONE-GO, N=3
Gαi = Gαi (UniProt P08753); conditions: cited from earlier work
GABABR = conditions: HEK293T cells expressing GABABR, GINIP-Nluc and YFP-CAAX

Gαi, sequence (P08753 2-354): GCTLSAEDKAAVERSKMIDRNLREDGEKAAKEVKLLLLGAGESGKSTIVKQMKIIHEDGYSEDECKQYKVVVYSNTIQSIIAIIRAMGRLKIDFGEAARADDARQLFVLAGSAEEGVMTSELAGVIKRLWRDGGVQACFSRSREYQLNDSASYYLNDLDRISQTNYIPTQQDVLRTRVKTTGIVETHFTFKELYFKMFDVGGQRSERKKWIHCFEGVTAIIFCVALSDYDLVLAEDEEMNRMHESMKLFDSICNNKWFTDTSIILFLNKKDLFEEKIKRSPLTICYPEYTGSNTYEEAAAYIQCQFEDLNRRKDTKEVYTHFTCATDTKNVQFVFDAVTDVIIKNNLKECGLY
GINIP, sequence (Q9UPV7 2-400): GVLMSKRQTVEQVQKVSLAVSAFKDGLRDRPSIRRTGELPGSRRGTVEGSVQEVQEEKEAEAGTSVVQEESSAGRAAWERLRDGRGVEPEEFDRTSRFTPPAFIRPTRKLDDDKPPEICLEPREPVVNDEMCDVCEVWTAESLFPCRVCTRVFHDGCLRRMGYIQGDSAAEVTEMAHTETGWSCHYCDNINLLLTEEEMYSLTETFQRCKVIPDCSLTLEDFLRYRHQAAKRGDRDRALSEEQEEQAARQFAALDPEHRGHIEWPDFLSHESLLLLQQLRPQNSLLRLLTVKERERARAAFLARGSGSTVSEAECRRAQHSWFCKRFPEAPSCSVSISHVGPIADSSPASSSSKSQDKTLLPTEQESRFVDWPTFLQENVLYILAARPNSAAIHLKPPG

For Endomorphin-1, the “DOR activity according to the source reference of the IUPHAR annotation” value (DOR) is given as “inactive” and the “agonist efficacy annotation for DOR in the IUPHAR database” value (DOR) is given as “full agonist”.

For Endomorphin-2, the “agonist efficacy annotation for DOR in the IUPHAR database” value (DOR) is listed as “lack of annotation”.

With `Nc1ncnc2c1ncn2[C@@H]1O[C@H](CO)[C@@H](O)[C@H]1O` [adenosine] the “BRET response (endogenous Gαi activation) to adenosine” value [1] was “robust and concentration-dependent responses”.

In the case of GINIP (from UniProt Q9UPV7), the Kd (Gαi) is listed as 65 nM.

In the case of CGP54626, the “reversal of the GABA-induced BRET response by antagonist” value (GABABR) is reported as “rapidly reverted”.

— paper PMC12077488 (Science signaling, 2025)
